Test results published in patent publication US20250186378A1, “COMPOSITION INCLUDING VITAMIN B5 FOR IMPROVING RESPIRATORY HEALTH AND TREATING OR PREVENTING RESPIRATORY DISEASES, PHARMACEUTICAL COMPOSITION INCLUDING THE SAME FOR TREATING OR PREVENTING RESPIRATORY DISEASES, AND HEALTH FUNCTIONAL FOOD COMPOSITION INCLUDING THE SAME FOR IMPROVING RESPIRATORY …” (KT&G CORPORATION, priority 2023, published 2025).

Tested on: total cells in bronchoalveolar lavage fluid
Experiment: Total cell count in bronchoalveolar lavage fluid, PM10D respiratory injury inflammation model
Format: in vivo, Balb/c mice
Conditions: vitamin B5 inhaled at 6 mg/kg or more, compared to the induced group and the oral administration group
Protocol: As an experimental animal, Balb/c mice (male, 6 weeks old, body weight of 15 to 17 g) were purchased from Coretech after receiving approval from the Institutional Animal Care and Use Committee (IACUC). After acclimatization for one week in the breeding room of the KT&G Bio-Efficacy Evaluation Center (temperature 23±2° C., humidity 50±10%, 12-hour light/dark cycle), the mice were used in the experiment. A PM10D mixture was prepared by diluting 3 mg/mL of particulate matter 10 (hereinafter PM10) [ERM-CZ120, Sigma Aldrich, St. Louis, MO, USA] and 0.6 mg/mL of diesel particulate matter (hereinafter DEP) [NIST-2975, Sigma Aldrich, St. Louis, MO, USA] in 1% Alum (Aluminium Hydroxide, 239186, Sigma Aldrich, USA). […] The exposure amount of aerosol (mg/L) was calculated as a dose (mg/kg) using a calculation formula based on a prior art (Alexander et al., Inhal Toxicol. 2008 October; 20(13):1179-89.). […] After centrifugation (1500 RPM/4° C./10 min) of the obtained bronchoalveolar lavage fluid, the supernatant was stored in an ultra-low temperature freezer (−70° C.) to measure cytokines, and cells isolated from the bronchoalveolar lavage fluid were treated with ammonium-chloride-potassium buffer (ACK, A10492-01, Gibco, NY, USA) solution for 10 minutes to lyse red blood cells, and then washed again with phosphate buffered saline, and the total cell count was measured using a hematocytometer. […]

CC(C)(CO)[C@@H](O)C(=O)NCCC(=O)O [vitamin B5, pantothenic acid]
Total cell count in bronchoalveolar lavage fluid (result in words): reduced
